Reference: ChEMBL document CHEMBL4004803, “Syntheses and antibacterial activity of soluble 9-bromo substituted indolizinoquinoline-5,12-dione derivatives” (Eur J Med Chem, 2017)

Columns and labels:
Escherichia coli = test: Antibacterial activity against Escherichia coli ATCC 25922 after 20 to 24 hrs by two-fold microdilution method; format: functional
Staphylococcus aureus [1] = test: Antibacterial activity against methicillin-resistant Staphylococcus aureus ATCC 43300 after 20 to 24 hrs by two-fold microdilution method; format: functional
[2] = tested on: Staphylococcus haemolyticus; test: Antibacterial activity against Staphylococcus haemolyticus CICC 10373 after 20 to 24 hrs by two-fold microdilution method; format: functional
Streptococcus pneumoniae = test: Antibacterial activity against Streptococcus pneumoniae ATCC 6305 after 20 to 24 hrs by two-fold microdilution method; format: functional
[3] = tested on: Staphylococcus epidermidis; test: Antibacterial activity against Staphylococcus epidermidis ATCC 12228 after 20 to 24 hrs by two-fold microdilution method; format: functional
Enterococcus faecalis = test: Antibacterial activity against Enterococcus faecalis ATCC 29212 after 20 to 24 hrs by two-fold microdilution method; format: functional
Staphylococcus aureus [4] = test: Antibacterial activity against methicillin-resistant Staphylococcus aureus 215073 clinical isolate after 20 to 24 hrs by two-fold microdilution method; format: functional
Staphylococcus aureus [5] = test: Antibacterial activity against methicillin-resistant Staphylococcus aureus 122045 clinical isolate after 20 to 24 hrs by two-fold microdilution method; format: functional
Staphylococcus aureus [6] = test: Antibacterial activity against methicillin-resistant Staphylococcus aureus 305026 clinical isolate after 20 to 24 hrs by two-fold microdilution method; format: functional
Staphylococcus aureus [7] = test: Antibacterial activity against methicillin-resistant Staphylococcus aureus 214026 clinical isolate after 20 to 24 hrs by two-fold microdilution method; format: functional
Staphylococcus aureus [8] = test: Antibacterial activity against methicillin-resistant Staphylococcus aureus 219236 clinical isolate after 20 to 24 hrs by two-fold microdilution method; format: functional
Staphylococcus aureus [9] = test: Antibacterial activity against methicillin-resistant Staphylococcus aureus 103054 clinical isolate after 20 to 24 hrs by two-fold microdilution method; format: functional
Staphylococcus aureus [10] = test: Antibacterial activity against methicillin-resistant Staphylococcus aureus 112430 clinical isolate after 20 to 24 hrs by two-fold microdilution method; format: functional
Staphylococcus aureus [11] = test: Antibacterial activity against methicillin-resistant Staphylococcus aureus 110910-2 clinical isolate after 20 to 24 hrs by two-fold microdilution method; format: functional
Staphylococcus aureus [12] = test: Antibacterial activity against methicillin-resistant Staphylococcus aureus 110414 clinical isolate after 20 to 24 hrs by two-fold microdilution method; format: functional
Staphylococcus aureus [13] = test: Antibacterial activity against methicillin-resistant Staphylococcus aureus 110325 clinical isolate after 20 to 24 hrs by two-fold microdilution method; format: functional
Staphylococcus aureus [14] = test: Antibacterial activity against methicillin-resistant Staphylococcus aureus 11819 clinical isolate after 20 to 24 hrs by two-fold microdilution method; format: functional
Staphylococcus aureus [15] = test: Antibacterial activity against methicillin-resistant Staphylococcus aureus 11703 clinical isolate after 20 to 24 hrs by two-fold microdilution method; format: functional
Staphylococcus aureus [16] = test: Antibacterial activity against methicillin-resistant Staphylococcus aureus 19950 clinical isolate after 20 to 24 hrs by two-fold microdilution method; format: functional
Staphylococcus aureus [17] = test: Antibacterial activity against methicillin-resistant Staphylococcus aureus 12308 clinical isolate after 20 to 24 hrs by two-fold microdilution method; format: functional
Staphylococcus aureus [18] = test: Antibacterial activity against methicillin-resistant Staphylococcus aureus 130031 clinical isolate after 20 to 24 hrs by two-fold microdilution method; format: functional
Staphylococcus aureus [19] = test: Antibacterial activity against methicillin-resistant Staphylococcus aureus 224001 clinical isolate after 20 to 24 hrs by two-fold microdilution method; format: functional
Staphylococcus aureus [20] = test: Antibacterial activity against methicillin-resistant Staphylococcus aureus 30116-1 clinical isolate after 20 to 24 hrs by two-fold microdilution method; format: functional
Staphylococcus aureus [21] = test: Antibacterial activity against methicillin-resistant Staphylococcus aureus 3250299 clinical isolate after 20 to 24 hrs by two-fold microdilution method; format: functional
Staphylococcus aureus [22] = test: Antibacterial activity against methicillin-resistant Staphylococcus aureus 504008 clinical isolate after 20 to 24 hrs by two-fold microdilution method; format: functional
Staphylococcus aureus [23] = test: Antibacterial activity against methicillin-resistant Staphylococcus aureus 625032 clinical isolate after 20 to 24 hrs by two-fold microdilution method; format: functional
Staphylococcus aureus [24] = test: Antibacterial activity against methicillin-resistant Staphylococcus aureus 518036 clinical isolate after 20 to 24 hrs by two-fold microdilution method; format: functional
Staphylococcus aureus [25] = test: Antibacterial activity against methicillin-resistant Staphylococcus aureus 519028 clinical isolate after 20 to 24 hrs by two-fold microdilution method; format: functional
Staphylococcus aureus [26] = test: Antibacterial activity against methicillin-resistant Staphylococcus aureus 519238 clinical isolate after 20 to 24 hrs by two-fold microdilution method; format: functional
Staphylococcus aureus [27] = test: Antibacterial activity against methicillin-resistant Staphylococcus aureus 519030 clinical isolate after 20 to 24 hrs by two-fold microdilution method; format: functional
Staphylococcus aureus [28] = test: Antibacterial activity against methicillin-resistant Staphylococcus aureus 523005 clinical isolate after 20 to 24 hrs by two-fold microdilution method; format: functional
Staphylococcus aureus [29] = test: Antibacterial activity against methicillin-resistant Staphylococcus aureus 531026 clinical isolate after 20 to 24 hrs by two-fold microdilution method; format: functional
Staphylococcus aureus [30] = test: Antibacterial activity against methicillin-resistant Staphylococcus aureus 814039 clinical isolate after 20 to 24 hrs by two-fold microdilution method; format: functional
Staphylococcus aureus [31] = test: Antibacterial activity against methicillin-resistant Staphylococcus aureus 912014 clinical isolate after 20 to 24 hrs by two-fold microdilution method; format: functional
Staphylococcus aureus [32] = test: Antibacterial activity against methicillin-resistant Staphylococcus aureus 919205 clinical isolate after 20 to 24 hrs by two-fold microdilution method; format: functional
Staphylococcus aureus [33] = test: Antibacterial activity against methicillin-resistant Staphylococcus aureus 1012039 clinical isolate after 20 to 24 hrs by two-fold microdilution method; format: functional
Staphylococcus aureus [34] = test: Antibacterial activity against methicillin-resistant Staphylococcus aureus 1024010 clinical isolate after 20 to 24 hrs by two-fold microdilution method; format: functional
Staphylococcus aureus [35] = test: Antibacterial activity against methicillin-resistant Staphylococcus aureus 1025022 clinical isolate after 20 to 24 hrs by two-fold microdilution method; format: functional
Staphylococcus aureus [36] = test: Antibacterial activity against methicillin-resistant Staphylococcus aureus 1211026 clinical isolate after 20 to 24 hrs by two-fold microdilution method; format: functional
Staphylococcus aureus [37] = test: Antibacterial activity against methicillin-resistant Staphylococcus aureus 1212221 clinical isolate after 20 to 24 hrs by two-fold microdilution method; format: functional
Staphylococcus aureus [38] = test: Antibacterial activity against methicillin-resistant Staphylococcus aureus 1101016 clinical isolate after 20 to 24 hrs by two-fold microdilution method; format: functional
Staphylococcus aureus [39] = test: Antibacterial activity against methicillin-resistant Staphylococcus aureus 1106003 clinical isolate after 20 to 24 hrs by two-fold microdilution method; format: functional
Staphylococcus aureus [40] = test: Antibacterial activity against methicillin-resistant Staphylococcus aureus 1128040 clinical isolate after 20 to 24 hrs by two-fold microdilution method; format: functional
Staphylococcus aureus [41] = test: Antibacterial activity against methicillin-resistant Staphylococcus aureus 1207026 clinical isolate after 20 to 24 hrs by two-fold microdilution method; format: functional
Staphylococcus aureus [42] = test: Antibacterial activity against methicillin-resistant Staphylococcus aureus 112047 clinical isolate after 20 to 24 hrs by two-fold microdilution method; format: functional
Staphylococcus aureus [43] = test: Antibacterial activity against methicillin-resistant Staphylococcus aureus 125025 clinical isolate after 20 to 24 hrs by two-fold microdilution method; format: functional
[44] = Solubility of the compound in water at 25 degC measured after shaking for 4 hrs by UV method; format: physicochemical; conditions: buffer, 4 h

O=C1c2cccnc2C(=O)c2c1c(C(=O)OCCCCCN1CCOCC1)c1ccc(Br)cn21
0.063 µg/mL: MIC (Staphylococcus aureus [5]) | MIC (Staphylococcus aureus [6]) | MIC (Staphylococcus aureus [7]) | MIC (Staphylococcus aureus [15]) | MIC (Staphylococcus aureus [18]) | MIC (Staphylococcus aureus [22]) | MIC (Staphylococcus aureus [23]) | MIC (Staphylococcus aureus [24]) | MIC (Staphylococcus aureus [27]) | MIC (Staphylococcus aureus [31])
0.25 µg/mL: MIC (Enterococcus faecalis) | MIC (Staphylococcus aureus [19])
2 µg/mL: MIC (Streptococcus pneumoniae)
0.016 µg/mL: MIC (Staphylococcus aureus [32])
16 µg/mL: MIC (Staphylococcus aureus [39])
0.125 µg/mL: MIC (Staphylococcus aureus [26]) | MIC (Staphylococcus aureus [30]) | MIC (Staphylococcus aureus [33])
0.031 µg/mL: MIC (Staphylococcus aureus [1]) | MIC (Staphylococcus aureus [8]) | MIC (Staphylococcus aureus [12]) | MIC (Staphylococcus aureus [16]) | MIC (Staphylococcus aureus [21]) | MIC (Staphylococcus aureus [28]) | MIC (Staphylococcus aureus [34]) | MIC (Staphylococcus aureus [35]) | MIC (Staphylococcus aureus [37]) | MIC (Staphylococcus aureus [38]) | MIC (Staphylococcus aureus [42])
≤ 0.0078 µg/mL: MIC [3] | MIC (Staphylococcus aureus [4]) | MIC (Staphylococcus aureus [9]) | MIC (Staphylococcus aureus [10]) | MIC (Staphylococcus aureus [11]) | MIC (Staphylococcus aureus [13]) | MIC (Staphylococcus aureus [14]) | MIC (Staphylococcus aureus [17]) | MIC (Staphylococcus aureus [20]) | MIC (Staphylococcus aureus [25]) | MIC (Staphylococcus aureus [29]) | MIC (Staphylococcus aureus [36]) | MIC (Staphylococcus aureus [40]) | MIC (Staphylococcus aureus [41]) | MIC (Staphylococcus aureus [43])
8 µg/mL: MIC (Escherichia coli)
Insoluble: solubility [44]
1 µg/mL: MIC [2]

O=C1c2cccnc2C(=O)c2c1c(C(=O)OCCCCCCN1CCOCC1)c1ccc(Br)cn21
0.063 µg/mL: MIC (Enterococcus faecalis)
Insoluble: solubility [44]
> 16 µg/mL: MIC (Staphylococcus aureus [39])
0.5 µg/mL: MIC (Streptococcus pneumoniae)
0.031 µg/mL: MIC [2]
≤ 0.0078 µg/mL: MIC (Staphylococcus aureus [1]) | MIC [3] | MIC (Staphylococcus aureus [4]) | MIC (Staphylococcus aureus [5]) | MIC (Staphylococcus aureus [6]) | MIC (Staphylococcus aureus [7]) | MIC (Staphylococcus aureus [8]) | MIC (Staphylococcus aureus [9]) | MIC (Staphylococcus aureus [10]) | MIC (Staphylococcus aureus [11]) | MIC (Staphylococcus aureus [12]) | MIC (Staphylococcus aureus [13]) | MIC (Staphylococcus aureus [14]) | MIC (Staphylococcus aureus [15]) | MIC (Staphylococcus aureus [16]) | MIC (Staphylococcus aureus [17]) | MIC (Staphylococcus aureus [18]) | MIC (Staphylococcus aureus [19]) | MIC (Staphylococcus aureus [20]) | MIC (Staphylococcus aureus [21]) | MIC (Staphylococcus aureus [22]) | MIC (Staphylococcus aureus [23]) | MIC (Staphylococcus aureus [24]) | MIC (Staphylococcus aureus [25]) | MIC (Staphylococcus aureus [26]) | MIC (Staphylococcus aureus [27]) | MIC (Staphylococcus aureus [28]) | MIC (Staphylococcus aureus [29]) | MIC (Staphylococcus aureus [30]) | MIC (Staphylococcus aureus [31]) | MIC (Staphylococcus aureus [32]) | MIC (Staphylococcus aureus [33]) | MIC (Staphylococcus aureus [34]) | MIC (Staphylococcus aureus [35]) | MIC (Staphylococcus aureus [36]) | MIC (Staphylococcus aureus [37]) | MIC (Staphylococcus aureus [38]) | MIC (Staphylococcus aureus [40]) | MIC (Staphylococcus aureus [41]) | MIC (Staphylococcus aureus [42]) | MIC (Staphylococcus aureus [43])
8 µg/mL: MIC (Escherichia coli)
